Reference: PubChem BioAssay (NCI)
“And” between values parts separate entries of the source, which are not always exact repeats. Identical values can stand only once.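 How tested: cells in 96-well plates exposed to compound for 48 hours at five concentrations. GI50 is the concentration that inhibits growth by half. Definition used: TGI = concentration required for complete inhibition of growth.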

Assays:
Test in all cases: NCI anticancer screen, dose series, 48 h
COLO 205 colon = tested on: COLO 205 colon
HOP-62 NSCLC = tested on: HOP-62 NSCLC
IGROV1 ovarian = tested on: IGROV1 ovarian
KM20L2 colon = tested on: KM20L2 colon
M14 melanoma = tested on: M14 melanoma
SK-OV-3 ovarian = tested on: SK-OV-3 ovarian
CAKI-1 renal = tested on: CAKI-1 renal
NCI-H522 lung = tested on: NCI-H522 lung
SF-268 CNS = tested on: SF-268 CNS

Row | SMILES | TGI (COLO 205 colon) | TGI (HOP-62 NSCLC) | TGI (IGROV1 ovarian) | TGI (KM20L2 colon) | TGI (M14 melanoma) | TGI (SK-OV-3 ovarian) | GI50 (CAKI-1 renal) | TGI (CAKI-1 renal) | GI50 (COLO 205 colon) | GI50 (HOP-62 NSCLC) | GI50 (IGROV1 ovarian) | GI50 (KM20L2 colon) | GI50 (M14 melanoma) | GI50 (NCI-H522 lung) | TGI (NCI-H522 lung) | GI50 (SF-268 CNS) | TGI (SF-268 CNS) | GI50 (SK-OV-3 ovarian)
1 | O=C1c2cccc3cc([N+](=O)[O-])cc(c23)C(=O)N1CCCN1CCN(CCCN2C(=O)c3cccc4cc([N+](=O)[O-])cc(c34)C2=O)CC1 | 2.67 µM | 33.8 µM | 15.4 µM | > 100 µM | 4.87 µM | 46.8 µM | – | – | – | – | – | – | – | – | – | – | – | –
2 | CC(C)(C)C([O-])=C1C(=O)c2ccccc2C1=O.CC(C)(C)C([O-])=C1C(=O)c2ccccc2C1=O.CC[O-].CC[O-].[Ti+4] | 44.7 µM | > 100 µM | > 100 µM | > 100 µM | > 100 µM | > 100 µM | 28 µM | 81.7 µM | 22.7 µM | 37.7 µM | 70.4 µM | 29.2 µM | 57.4 µM | 21.7 µM | 54.2 µM | 70.6 µM | > 100 µM | 39.9 µM
3 | Cc1c2ncccc2c(C)c2c1[nH]c1ccccc12 | 26.9 µM | 24.1 µM | 29.4 µM | 22.6 µM | 44.9 µM | 31.3 µM | – | 22 µM | – | – | – | – | – | – | 26.7 µM | – | 34.8 µM | –
4 | Cc1ccc(S(=O)(=O)ON/N=C2/C3OC3[C@@H]3CCCC[C@H]23)cc1 (stereo partly drawn) | > 100 µM | > 100 µM | > 100 µM | > 100 µM | > 100 µM | – | – | > 100 µM | – | – | – | – | – | – | > 100 µM | – | > 100 µM | –
5 | c1cc(-c2sc(-c3ccncc3)c(-c3ccncc3)c2-c2ccncc2)ccn1 | 27.4 µM | 78.1 µM | > 100 µM | – | 31.2 µM | 54 µM | – | > 100 µM | – | – | – | – | – | – | 35.9 µM | – | 37.7 µM | –
6 | O=C1NC(=O)C(c2ccccc2Cl)=C1Nc1cccc(O)c1 | > 21.6 µM | > 25 µM | > 25 µM | – | > 25 µM | > 25 µM | 4.41 µM | > 25 µM | 7.17 µM | 3.89 µM | > 25 µM | – | > 25 µM | 2.17 µM | > 25 µM | 12.5 µM | > 25 µM | 4.99 µM
7 | COc1ccc2c(C3(O)CCNCC3)c[nH]c2c1 | > 100 µM | > 100 µM | > 100 µM | > 100 µM | > 100 µM | > 100 µM | – | > 100 µM | – | – | – | – | – | – | > 100 µM | – | > 100 µM | –
8 | Cc1ccc(S(=O)(=O)NCCN2c3nc4ccccc4cc3Sc3cc4ccccc4nc32)cc1 | > 100 µM | 98.9 µM | > 100 µM | – | > 100 µM | 54.2 µM | 13.8 µM | > 71.7 µM | > 100 µM | 16.5 µM | 7.06 µM | – | > 100 µM | 44.4 µM | > 100 µM | 11.4 µM | > 100 µM | 7.82 µM
9 | CC1(C)C(=O)/C(=C\c2ccco2)C[C@]2(C)[C@H]3CC=C4[C@@H]5C[C@](C)(C(=O)O)CC[C@]5(C)CC[C@@]4(C)[C@]3(C)CC[C@@H]12 | 25.5 µM | 28.5 µM | 28.3 µM | – | 35.1 µM | 29.3 µM | 10.6 µM | 28.2 µM | 9.31 µM | 10.1 µM | 8.56 µM | – | 13.3 µM | 9.26 µM | 25.6 µM | 12.1 µM | 28.2 µM | 14.4 µM
10 | O=C(O)C(Cc1ccc(O)c([N+](=O)[O-])c1)N1C(=O)c2ccccc2C1=O (stereo not drawn) | > 100 µM | > 100 µM | > 100 µM | – | > 100 µM | > 100 µM | – | > 100 µM | – | – | – | – | – | – | > 100 µM | – | > 100 µM | –
11 | O=C(N/N=C/c1ccc(F)cc1)c1[nH]c2ccc(I)cc2c1-c1ccccc1 | 1.7 µM | 13.6 µM | 32.5 µM | – | 7.85 µM | 10.7 µM | 0.399 µM | 56.1 µM | 0.482 µM | 0.577 µM | 0.45 µM | – | 0.372 µM | 0.257 µM | 1.74 µM | 0.772 µM | > 80.7 µM | 0.464 µM
12 | Cc1ccc2c(c1)sc(-c1ccc(N(C)C)cc1)[n+]2C | 1.44 µM | > 41.4 µM | > 100 µM | – | > 38 µM | 7.91 µM | 8.84 µM | > 56.2 µM | 0.368 µM | 3.66 µM | 3.77 µM | – | 1.79 µM | 1.45 µM | > 100 µM | 2.44 µM | 24.9 µM | 2.04 µM
13 | O=C(Nc1ccc(Br)cc1)c1cc(Br)cc(Br)c1O | 4.59 µM | 6.5 µM | 15.6 µM | – | 11.3 µM | > 100 µM | 1.73 µM | 4.59 µM | 2.33 µM | 2.45 µM | 3.02 µM | – | 2.99 µM | 2.23 µM | 7.7 µM | 3.59 µM | 18.6 µM | 3.14 µM
14 | Cn1cnc([N+](=O)[O-])c1Sc1ncnc2nc[nH]c12 | 65.1 µM and > 100 µM | > 100 µM | > 100 µM | – | 60.5 µM and > 100 µM | 39.6 µM and > 100 µM | 2.6 µM and 5.07 µM | > 100 µM | 11.6 µM and 19.9 µM | 0.882 µM and 5.79 µM | 9.13 µM and 12.1 µM | – | 0.755 µM and 2.77 µM | 7.56 µM | > 100 µM | 5.32 µM and 6.48 µM | > 100 µM | 0.471 µM and 0.867 µM
